Test [1] is filed under the species Mus musculus. Nature of the test: Antiinflammatory potency to betamethasone 17-valerate measured in mice using 5 day Tonelli croton oil ear test. Type of test: functional.
For test [2], the species on record is Mus musculus. The test can be described thus: Antiinflammatory potency to betamethasone 17-valerate measured in mice using 5 hr Tonelli croton oil ear test. Type of test: functional.

Turning to `CC(=O)OCC(=O)[C@@]1(OC(=O)c2cccs2)C(C)CC2C3CCC4=CC(=O)C=CC4(C)[C@@]3(Cl)C(Cl)CC21C` (some centres undefined), the Topical potency amounted to 0.8 in test [1] and 1.3 in test [2].

Take `CC1CC2C3CCC4=CC(=O)C=CC4(C)[C@@]3(Cl)C(Cl)CC2(C)[C@@]1(OC(=O)c1ccoc1)C(=O)CCl` (some centres undefined): the Topical potency amounted to 1.7 in test [1] and 1 in test [2].

As for `CC1CC2C3CCC4=CC(=O)C=CC4(C)[C@@]3(Cl)C(Cl)CC2(C)[C@@]1(OC(=O)c1ccco1)C(=O)CO` (some centres undefined), the Topical potency in test [2] was 0.8.

For the molecule `CC(=O)OCC(=O)[C@@]1(OC(=O)c2ccoc2)C(C)CC2C3CCC4=CC(=O)C=CC4(C)[C@@]3(Cl)C(Cl)CC21C` (some centres undefined), the Topical potency came out at 1.4 in test [1] and 1.3 in test [2].

As for `CC1CC2C3CCC4=CC(=O)C=CC4(C)[C@@]3(Cl)C(Cl)CC2(C)[C@@]1(OC(=O)c1ccoc1)C(=O)CO` (some centres undefined), the Topical potency in test [2] is given as 0.7.

In test [2], `CC1CC2C3CCC4=CC(=O)C=CC4(C)[C@@]3(Cl)C(Cl)CC2(C)[C@@]1(OC(=O)c1cccs1)C(=O)CO` (some centres undefined) yielded a Topical potency of 0.8.

Consider `CC(=O)OCC(=O)[C@@]1(OC(=O)c2ccc(C)s2)C(C)CC2C3CCC4=CC(=O)C=CC4(C)[C@@]3(Cl)C(Cl)CC21C` (some centres undefined), for which the Topical potency in test [1] is recorded as 0.56; in test [2], 1.2.

`CC(=O)OCC(=O)[C@@]1(OC(=O)c2cccn2C)C(C)CC2C3CCC4=CC(=O)C=CC4(C)[C@@]3(Cl)C(Cl)CC21C` (some centres undefined): the Topical potency in test [2] was 1.1.

As for `CC(=O)OCC(=O)[C@@]1(OC(=O)c2ccco2)C(C)CC2C3C[C@H](F)C4=CC(=O)C=CC4(C)[C@@]3(Cl)C(Cl)CC21C` (some centres undefined), the Topical potency came to 1.8 in test [1] and 3.3 in test [2].

With `C[C@H]1CC2C3CCC4=CC(=O)C=C[C@]4(C)[C@@]3(Cl)C(Cl)C[C@]2(C)[C@@]1(OC(=O)c1ccco1)C(=O)CCl` (some centres undefined), the Topical potency is listed as 0.8 in test [1] and 1.2 in test [2].

For the molecule `CC(=O)OCC(=O)[C@@]1(OC(=O)c2ccco2)[C@@H](C)CC2C3CCC4=CC(=O)C=C[C@]4(C)[C@@]3(Cl)C(Cl)C[C@@]21C` (some centres undefined), the Topical potency in test [1] is listed as 1.7; in test [2] it was 1.3.

`C[C@@H]1CC2C3CCC4=CC(=O)C=C[C@]4(C)[C@@]3(Cl)C(Cl)C[C@]2(C)[C@@]1(OC(=O)c1ccco1)C(=O)CCl` (some centres undefined): the Topical potency in test [1] stood at 8.2; in test [2] it was 1.9.

As for `CC(=O)OCC(=O)[C@@]1(OC(=O)c2ccco2)[C@H](C)CC2C3CCC4=CC(=O)C=C[C@]4(C)[C@@]3(Cl)C(Cl)C[C@@]21C` (some centres undefined), the Topical potency in test [1] stood at 1.2; in test [2] it was 1.4.

On to `COCC(=O)OCC(=O)[C@@]1(OC(=O)c2ccco2)C(C)CC2C3CCC4=CC(=O)C=CC4(C)[C@@]3(Cl)C(Cl)CC21C` (some centres undefined), for which the figures for the Topical potency in test [1] and in test [2] were 3 and 1, respectively.

For `CC(=O)OCC(=O)[C@@]1(OC(=O)c2cnc3ccccc3n2)C(C)CC2C3CCC4=CC(=O)C=CC4(C)[C@@]3(Cl)C(Cl)CC21C` (some centres undefined), the Topical potency in test [2] is given as 0.3.

Regarding `CC(=O)OCC(=O)[C@@]1(OC(=O)c2ccsc2)C(C)CC2C3CCC4=CC(=O)C=CC4(C)[C@@]3(Cl)C(Cl)CC21C` (some centres undefined), the Topical potency worked out at 3.2 in test [1] and 0.9 in test [2].

`CCCC(=O)OCC(=O)[C@@]1(OC(=O)c2ccco2)C(C)CC2C3CCC4=CC(=O)C=CC4(C)[C@@]3(Cl)C(Cl)CC21C` (some centres undefined) registered a Topical potency in test [2] of 1.

`CC1CC2C3CCC4=CC(=O)C=CC4(C)[C@@]3(Cl)C(Cl)CC2(C)[C@@]1(OC(=O)c1ccco1)C(=O)CF` (some centres undefined): the figures for the Topical potency in test [1] and in test [2] were 4 and 1.8, respectively.

Turning to `CC1CC2C3C[C@H](F)C4=CC(=O)C=CC4(C)[C@@]3(Cl)C(Cl)CC2(C)[C@@]1(OC(=O)c1ccco1)C(=O)CCl` (some centres undefined), the Topical potency in test [1] is reported as 3; in test [2], 2.5.

As to `CC1CC2C3CCC4=CC(=O)C=CC4(C)[C@@]3(Cl)C(Cl)CC2(C)[C@@]1(OC(=O)c1cccs1)C(=O)CCl` (some centres undefined), the Topical potency in test [1] is given as 3.3; in test [2], 0.7.

As to `CCC(=O)OCC(=O)[C@@]1(OC(=O)c2ccco2)C(C)CC2C3CCC4=CC(=O)C=CC4(C)[C@@]3(Cl)C(Cl)CC21C` (some centres undefined), the Topical potency in test [1] came to 0.9; in test [2], 1.1.

In test [2], `CC(=O)OCC(=O)[C@@]1(OC(=O)c2ccc(Br)o2)C(C)CC2C3CCC4=CC(=O)C=CC4(C)[C@@]3(Cl)C(Cl)CC21C` (some centres undefined) displayed a Topical potency of 0.6.

On to `CCCCC(=O)O[C@]1(C(=O)CO)[C@@H](C)C[C@H]2[C@@H]3CCC4=CC(=O)C=C[C@]4(C)[C@@]3(F)[C@@H](O)C[C@@]21C` [BETAMETHASONE VALERATE], for which the Topical potency in test [1] and in test [2] was 1 throughout.

The values are drawn from ChEMBL document CHEMBL1123852, “Synthesis and structure-activity studies of corticosteroid 17-heterocyclic aromatic esters. 1. 9 alpha, 11 beta-dichloro series” (1987).
